Legend:
Format in all cases: cell-based
[1] = molecular target: T1, human S1P5 receptor (S1PR5) (Homo sapiens, UniProt Q9H228); experiment: Intracellular Ca2+ release (method 1), agonist potency and efficacy, S1P5; conditions: for Emax: maximum effect in % of reference agonist phospho-fingolimod (100%), read-out: hS1P5 EMax; for EC50: recombinant CHO-K1 cells expressing human S1PR5, aequorin, Gq/i5, Ca2+ release, read-out: S1P5 EC50 range
T1 construct: host or cells: CHO-K1
Procedure: (§1) Agonistic activity and efficacy of compounds was assessed in recombinant cells using method 1 described below.
(§2) Agonist potency and efficacy were assessed by measurement of intracellular Ca^2+ release. Recombinant CHO-K1 cells (Euroscreen, Brussels, Belgium) expressing human S1PR5, S1PR1, S1PR3 or S1PR4 receptors, aequorin, and GTP binding protein Gq/i5 were cultured using a medium containing nutrient mixture F-12 Ham (Sigma-Aldrich) with 10% FBS, and 100 μg/mL gentamicin and equilibrated at 5% CO2.
(§3) 15,000 cells in 20 μL medium were seeded into Biocoat poly-D-Lysine coated 384 well plates (Becton Dickinson #35-6663) and grown to 95% confluency after 24 h.
(§4) Culture medium was replaced by an assay buffer consisting of HBBS with Ca^2+ and Mg^2+ (Invitrogen #14025-050), 20 mmol/L Hepes (Sigma-Aldrich #H-3375), 2.5 mmol/L probenecid (Sigma-Aldrich #P-8761, and 0.1% BSA (Sigma-Aldrich #A-7030) pH 7.4. The Calcium 5 no-wash FLIPR assay kit (Molecular Devices #5000625) was performed as described in the kit instructions. Cells were incubated with Calcium 5 dye for 1 h at 37° C., 5% CO2 in the dark. After 45 min adaptation to RT assessment of agonist stimulation of intracellular Ca^2+ release was performed by addition of test compounds at various concentrations obtained by serial dilution. Phospho-fingolimod was used as positive control and reference agonist (intrinsic activity 100%).
(§5) Agonism of test compounds at the human S1Px receptors were characterized by the EC50 values (potencies) deduced from a nonlinear 4 parametric logistic curve fit to the measured fluorescence data after normalization to the lower and upper plateaus of the fitted reference agonist's (phospho-fingolimod)effect curve and by their efficacy (Emax) values represented by their maximum achievable effects in % of the reference agonist's efficacy, which is defined as an Emax of 100%.

[2] = molecular target: T2, human S1P1 receptor (S1PR1) (Homo sapiens, UniProt P21453); experiment: Intracellular Ca2+ release (method 1), agonist potency, S1P1; conditions: CHO-K1 cells expressing human S1PR1; cells given as bound
T2 construct: host or cells: CHO-K1
Procedure: as §1, §2, §3, §4, §5

[3] = molecular target: T3, human S1P3 receptor (S1PR3) (Homo sapiens, UniProt Q99500); experiment: Intracellular Ca2+ release (method 1), agonist potency, S1P3; conditions: CHO-K1 cells expressing human S1PR3
T3 construct: host or cells: CHO-K1
Procedure: as §1, §2, §3, §4, §5

[4] = molecular target: T4, human S1P4 receptor (S1PR4) (Homo sapiens, UniProt O95977); experiment: Intracellular Ca2+ release (method 1), agonist potency, S1P4; conditions: CHO-K1 cells expressing human S1PR4
T4 construct: host or cells: CHO-K1
T4 sequence (O95977 1-384): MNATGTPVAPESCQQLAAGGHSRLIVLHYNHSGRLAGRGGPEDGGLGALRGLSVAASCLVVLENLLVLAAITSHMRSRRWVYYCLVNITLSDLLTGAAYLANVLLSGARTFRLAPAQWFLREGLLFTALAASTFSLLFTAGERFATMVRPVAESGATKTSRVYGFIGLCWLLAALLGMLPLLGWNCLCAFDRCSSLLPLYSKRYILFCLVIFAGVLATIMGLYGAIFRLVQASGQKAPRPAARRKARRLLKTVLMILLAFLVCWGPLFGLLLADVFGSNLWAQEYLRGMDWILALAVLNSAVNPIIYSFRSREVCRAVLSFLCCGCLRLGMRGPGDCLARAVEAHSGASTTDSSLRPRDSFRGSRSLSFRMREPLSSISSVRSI
Procedure: as §1, §2, §3, §4, §5

T3 sequence (Q99500 whole entry): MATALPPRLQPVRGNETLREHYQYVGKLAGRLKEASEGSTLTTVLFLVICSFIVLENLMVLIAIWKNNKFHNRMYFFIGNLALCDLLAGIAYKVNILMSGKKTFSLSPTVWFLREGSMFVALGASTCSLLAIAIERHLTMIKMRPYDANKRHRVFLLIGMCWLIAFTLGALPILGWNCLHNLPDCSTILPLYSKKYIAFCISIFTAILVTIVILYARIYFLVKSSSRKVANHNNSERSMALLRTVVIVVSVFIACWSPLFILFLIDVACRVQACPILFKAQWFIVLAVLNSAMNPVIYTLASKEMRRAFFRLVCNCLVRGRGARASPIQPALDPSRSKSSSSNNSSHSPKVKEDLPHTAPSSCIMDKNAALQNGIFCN
T2 sequence (P21453 whole entry): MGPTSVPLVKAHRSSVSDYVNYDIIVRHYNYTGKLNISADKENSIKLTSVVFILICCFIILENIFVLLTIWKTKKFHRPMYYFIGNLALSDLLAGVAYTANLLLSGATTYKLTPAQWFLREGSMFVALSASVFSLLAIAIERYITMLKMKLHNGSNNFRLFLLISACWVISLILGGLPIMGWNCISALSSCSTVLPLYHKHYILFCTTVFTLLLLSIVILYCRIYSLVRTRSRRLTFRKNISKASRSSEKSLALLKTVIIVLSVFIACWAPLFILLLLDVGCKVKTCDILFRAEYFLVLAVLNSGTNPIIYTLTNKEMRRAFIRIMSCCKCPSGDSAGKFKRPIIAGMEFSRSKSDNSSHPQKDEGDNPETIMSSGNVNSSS
T1 sequence (Q9H228 whole entry): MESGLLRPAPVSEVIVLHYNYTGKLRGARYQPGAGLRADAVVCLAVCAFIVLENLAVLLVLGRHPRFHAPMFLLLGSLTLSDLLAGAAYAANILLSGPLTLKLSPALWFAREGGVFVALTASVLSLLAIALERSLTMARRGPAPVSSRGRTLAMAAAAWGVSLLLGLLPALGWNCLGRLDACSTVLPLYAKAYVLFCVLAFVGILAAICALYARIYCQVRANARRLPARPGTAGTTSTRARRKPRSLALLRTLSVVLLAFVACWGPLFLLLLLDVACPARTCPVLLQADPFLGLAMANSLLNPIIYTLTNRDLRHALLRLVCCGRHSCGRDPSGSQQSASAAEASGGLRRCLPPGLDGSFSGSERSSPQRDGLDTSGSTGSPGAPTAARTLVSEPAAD

## O=C(O)CCCN1Cc2ccc(OCc3ccccc3OC(F)(F)F)cc2C2(CC2)C1 [Compound 14, 4-(6′-((2-(Trifluoromethoxy)benzyl)oxy)-1′H-spiro[cyclopropane-1,4′-isoquinolin]-2′(3′H)-yl)butanoic acid]
[1]
  Emax: 50 to 100%
  EC50: < 10 nM
[2]
  EC50: > 1000 nM
[3]
  EC50: > 1000 nM
[4]
  EC50: 100 to 1000 nM

## O=C(O)CCCN1Cc2ccc(OCc3c(Cl)cccc3Cl)cc2C2(CC2)C1 [Compound 15, 4-(6′-((2,6-Dichlorobenzyl)oxy)-1′H-spiro[cyclopropane-1,4′-isoquinolin]-2′(3′H)-yl)butanoic acid]
[1]
  Emax: > 100%
  EC50: < 10 nM
[2]
  EC50: > 1000 nM
[3]
  EC50: > 1000 nM
[4]
  EC50: 10 to 100 nM

## O=C(O)CCCN1Cc2ccc(OCc3ccc(F)c(F)c3)cc2C2(CC2)C1 [Compound 18, 4-(6′-((3,4-Difluorobenzyl)oxy)-1′H-spiro[cyclopropane-1,4′-isoquinolin]-2′(3′H)-yl)butanoic acid]
[1]
  Emax: < 50%
  EC50: 10 to 100 nM
[2]
  EC50: > 1000 nM
[3]
  EC50: > 1000 nM
[4]
  EC50: 100 to 1000 nM

## O=C(O)CCCN1Cc2ccc(OCc3ccccc3F)cc2C2(CC2)C1 [Compound 19, 4-(6′-((2-Fluorobenzyl)oxy)-1′H-spiro[cyclopropane-1,4′-isoquinolin]-2′(3′H)-yl)butanoic acid]
[1]
  Emax: 50 to 100%
  EC50: < 10 nM
[2]
  EC50: > 1000 nM
[3]
  EC50: > 1000 nM
[4]; cells given as bound
  EC50: > 1000 nM

## O=C(O)CCCN1Cc2ccc(OCc3cccc(OC(F)(F)F)c3)cc2C2(CC2)C1 [Compound 20, 4-(6′-((3-(Trifluoromethoxy)benzyl)oxy)-1′H-spiro[cyclopropane-1,4′-isoquinolin]-2′(3′H)-yl)butanoic acid]
[1]
  Emax: < 50%
  EC50: 10 to 100 nM
[2]
  EC50: > 1000 nM
[3]
  EC50: > 1000 nM
[4]
  EC50: 100 to 1000 nM

## O=C(O)CCCN1Cc2ccc(OCc3cccc(F)c3F)cc2C2(CC2)C1 [Compound 21, 4-(6′-((2,3-Difluorobenzyl)oxy)-1′H-spiro[cyclopropane-1,4′-isoquinolin]-2′(3′H)-yl)butanoic acid]
[1]
  Emax: < 50%
  EC50: 10 to 100 nM
[2]
  EC50: > 1000 nM
[3]
  EC50: > 1000 nM
[4]
  EC50: 100 to 1000 nM

## Cc1ccccc1COc1ccc2c(c1)C1(CC1)CN(CCCC(=O)O)C2 [Compound 22, 4-(6′-((2-Methylbenzyl)oxy)-1′H-spiro[cyclopropane-1,4′-isoquinolin]-2′(3′H)-yl)butanoic acid]
[1]
  Emax: 50 to 100%
  EC50: < 10 nM
[2]
  EC50: > 1000 nM
[3]
  EC50: > 1000 nM
[4]
  EC50: 100 to 1000 nM

## O=C(O)CCCN1Cc2ccc(OCc3cccc(F)c3)cc2C2(CC2)C1 [Compound 23, 4-(6′-((3-Fluorobenzyl)oxy)-1′H-spiro[cyclopropane-1,4′-isoquinolin]-2′(3′H)-yl)butanoic acid]
[1]
  Emax: 50 to 100%
  EC50: 10 to 100 nM
[2]
  EC50: > 1000 nM
[3]
  EC50: > 1000 nM
[4]; cells given as bound
  EC50: > 1000 nM

## O=C(O)CCCN1Cc2ccc(OCc3cccc(Cl)c3)cc2C2(CC2)C1 [Compound 24, 4-(6′-((3-Chlorobenzyl)oxy)-1′H-spiro[cyclopropane-1,4′-isoquinolin]-2′(3′H)-yl)butanoic acid]
[1]
  Emax: 50 to 100%
  EC50: < 10 nM
[2]
  EC50: > 1000 nM
[3]
  EC50: > 1000 nM
[4]
  EC50: 100 to 1000 nM

## O=C(O)CCCN1Cc2ccc(OCc3ccccc3Cl)cc2C2(CC2)C1 [Compound 25, 4-(6′-((2-Chlorobenzyl)oxy)-1′H-spiro[cyclopropane-1,4′-isoquinolin]-2′(3′H)-yl)butanoic acid]
[1]
  Emax: 50 to 100%
  EC50: < 10 nM
[2]
  EC50: > 1000 nM
[3]
  EC50: > 1000 nM
[4]
  EC50: 100 to 1000 nM

From patent US20210147381A1, “1,2,3,4-SUBSTITUTED QUINOLINE COMPOUNDS AS SIP MODULATORS” (AbbVie Deutschland GmbH & Co. KG, priority 2017, published 2021)
